Like-named read-outs stand apart in the source and are kept apart here.
Experiments:
Experiment in all cases: Ras-Raf disruption / FRET / MOA assay (BRAF RBD)
Format in all cases: biochemical
[1] = molecular target: KRAS G12C (Homo sapiens, UniProt P01116+P62937, G12C); conditions: with Cyclophilin A
In short: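 His6-K-Ras G12C-GMPPNP (12.5 nM), GST-BRAF RBD (50 nM) and tagless Cyclophilin A (25 μM) incubated 3 h at 25 °C with compound (10-point 3-fold series from 30 μM), pH 7.3 HEPES buffer. Anti-His Eu/anti-GST APC added for 1.5 h; decreased TR-FRET ratio vs DMSO gives IC50.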

[2] = molecular target: KRAS G12S (Homo sapiens, UniProt P01116+P62937, G12S); conditions: with Cyclophilin A
In short: (§1)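 TR-FRET in 25 mM HEPES pH 7.3, 100 mM NaCl, 5 mM MgCl2, 0.1% BSA, 0.002% Tween20 with 25 μM Cyclophilin A, 12.5 nM His6-Ras-GMPPNP, 50 nM GST-BRAF RBD; compound 10-point 3-fold series from 30 μM. After 3 h at 25 °C, Eu anti-His/APC anti-GST added for 1.5 h; IC50 from ratio decrease versus DMSO.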

[3] = molecular target: NRAS Q61K (Homo sapiens, UniProt P01111+P62937, Q61K)
In short: as §1

[4] = molecular target: NRAS WT (Homo sapiens, UniProt P01111+P62937)
In short: as §1

[5] = molecular target: NRAS G12C (Homo sapiens, UniProt P01111+P62937, G12C)
In short: as §1

[6] = molecular target: KRAS G13D (Homo sapiens, UniProt P01116+P62937, G13D); conditions: with Cyclophilin A
In short: as §1

[7] = molecular target: KRAS WT (Homo sapiens, UniProt P01116+P62937); conditions: with Cyclophilin A
In short: as §1

[8] = molecular target: KRAS G12D (Homo sapiens, UniProt P01116+P62937, G12D); conditions: with Cyclophilin A
In short: as §1

[9] = molecular target: KRAS Q61H (Homo sapiens, UniProt P01116+P62937, Q61H)
In short: as §1

[10] = molecular target: NRAS Q61R (Homo sapiens, UniProt P01111+P62937, Q61R)
In short: as §1

[11] = molecular target: KRAS G12V (Homo sapiens, UniProt P01116+P62937, G12V); conditions: with Cyclophilin A
In short: as §1

[12] = molecular target: KRAS G13C (Homo sapiens, UniProt P01116+P62937, G13C); conditions: with Cyclophilin A
In short: as §1

[13] = KRAS G12C FRET data IC50, Ras-Raf disruption
[14] = KRAS G12S FRET data IC50, Ras-Raf disruption
[15] = NRAS G12C FRET data IC50, NRAS G12C
[16] = KRAS G13D FRET data IC50, Ras-Raf disruption
[17] = KRAS WT FRET data IC50, Ras-Raf disruption
[18] = KRAS G12D FRET data IC50, Ras-Raf disruption
[19] = KRAS G12V FRET data IC50, Ras-Raf disruption
[20] = KRAS G13C FRET data IC50, Ras-Raf disruption
[21] = Ras-Raf disruption, read-out: KRAS G12C FRET data IC50
[22] = Ras-Raf disruption, read-out: KRAS G12S FRET data IC50
[23] = NRAS Q61K, read-out: NRAS Q61K FRET data IC50
[24] = NRAS WT, read-out: NRAS WT FRET data IC50
[25] = NRAS G12C, read-out: NRAS G12C FRET data IC50
[26] = Ras-Raf disruption, read-out: KRAS G13D FRET data IC50
[27] = Ras-Raf disruption, read-out: KRAS WT FRET data IC50
[28] = Ras-Raf disruption, read-out: KRAS G12D FRET data IC50
[29] = KRAS Q61H, read-out: KRAS Q61H FRET data IC50
[30] = NRAS Q61R, read-out: NRAS Q61R FRET data IC50
[31] = Ras-Raf disruption, read-out: KRAS G12V FRET data IC50
[32] = Ras-Raf disruption, read-out: KRAS G13C FRET data IC50

NRAS WT, sequence (P01111 whole entry): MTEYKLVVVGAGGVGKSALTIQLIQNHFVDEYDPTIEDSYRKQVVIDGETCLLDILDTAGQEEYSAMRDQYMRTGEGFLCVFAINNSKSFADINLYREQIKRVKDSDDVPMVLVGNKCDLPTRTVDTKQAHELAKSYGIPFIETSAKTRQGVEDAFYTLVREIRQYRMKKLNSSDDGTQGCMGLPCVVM
NRAS WT, sequence (P62937 whole entry): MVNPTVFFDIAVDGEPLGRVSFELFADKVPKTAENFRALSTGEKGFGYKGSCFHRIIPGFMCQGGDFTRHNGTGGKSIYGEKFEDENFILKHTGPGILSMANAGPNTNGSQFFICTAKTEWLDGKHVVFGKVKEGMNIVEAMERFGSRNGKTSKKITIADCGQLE
KRAS G13C, sequence (P01116 1-169 isoform P01116-2 G13C limits assumed): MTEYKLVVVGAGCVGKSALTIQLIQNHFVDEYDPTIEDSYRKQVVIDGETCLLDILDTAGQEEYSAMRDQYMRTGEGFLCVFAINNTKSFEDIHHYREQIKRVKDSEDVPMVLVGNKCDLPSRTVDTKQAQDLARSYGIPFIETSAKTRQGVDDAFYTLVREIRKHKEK
KRAS G13C, sequence (P62937 whole entry): as the sequence (P62937 whole entry) above
KRAS G12S, sequence (P01116 1-169 isoform P01116-2 G12S limits assumed): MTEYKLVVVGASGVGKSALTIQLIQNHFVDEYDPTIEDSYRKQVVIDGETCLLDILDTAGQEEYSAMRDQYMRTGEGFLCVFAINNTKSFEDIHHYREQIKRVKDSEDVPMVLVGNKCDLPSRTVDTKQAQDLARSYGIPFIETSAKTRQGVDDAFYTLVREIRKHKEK
KRAS G12S, sequence (P62937 whole entry): as the sequence (P62937 whole entry) above
KRAS G13D, sequence (P01116 1-169 isoform P01116-2 G13D limits assumed): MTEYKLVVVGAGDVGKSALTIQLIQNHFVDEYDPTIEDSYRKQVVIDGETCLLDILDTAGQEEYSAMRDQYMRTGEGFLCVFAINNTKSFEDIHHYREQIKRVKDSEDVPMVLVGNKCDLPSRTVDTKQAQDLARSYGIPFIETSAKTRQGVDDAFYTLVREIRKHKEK
KRAS G13D, sequence (P62937 whole entry): as the sequence (P62937 whole entry) above
NRAS G12C, sequence (P01111 whole entry G12C): as the sequence (P01111 whole entry) above, with G12C counted along it
NRAS G12C, sequence (P62937 whole entry): as the sequence (P62937 whole entry) above
KRAS G12C, sequence (P01116 1-169 isoform P01116-2 G12C limits assumed): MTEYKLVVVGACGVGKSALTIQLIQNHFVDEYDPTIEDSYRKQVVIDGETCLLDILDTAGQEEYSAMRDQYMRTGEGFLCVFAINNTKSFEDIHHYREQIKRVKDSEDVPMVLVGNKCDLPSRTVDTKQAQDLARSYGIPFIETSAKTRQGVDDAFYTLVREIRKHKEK
KRAS G12C, sequence (P62937 whole entry): as the sequence (P62937 whole entry) above
KRAS WT, sequence (P01116 1-169 isoform P01116-2 limits assumed): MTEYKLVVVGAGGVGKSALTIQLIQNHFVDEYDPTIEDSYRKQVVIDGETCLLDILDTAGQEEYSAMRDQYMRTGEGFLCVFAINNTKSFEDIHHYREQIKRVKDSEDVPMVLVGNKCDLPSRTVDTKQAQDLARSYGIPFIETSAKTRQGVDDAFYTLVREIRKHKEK
KRAS WT, sequence (P62937 whole entry): as the sequence (P62937 whole entry) above
NRAS Q61K, sequence (P01111 whole entry Q61K): as the sequence (P01111 whole entry) above, with Q61K counted along it
NRAS Q61K, sequence (P62937 whole entry): as the sequence (P62937 whole entry) above
KRAS Q61H, sequence (P01116 1-169 isoform P01116-2 Q61H limits assumed): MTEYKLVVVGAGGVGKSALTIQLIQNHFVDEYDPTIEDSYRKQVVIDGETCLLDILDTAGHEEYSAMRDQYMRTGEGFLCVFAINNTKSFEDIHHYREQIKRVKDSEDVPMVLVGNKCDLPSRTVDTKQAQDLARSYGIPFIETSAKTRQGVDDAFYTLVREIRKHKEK
KRAS Q61H, sequence (P62937 whole entry): as the sequence (P62937 whole entry) above
KRAS G12V, sequence (P01116 1-169 isoform P01116-2 G12V limits assumed): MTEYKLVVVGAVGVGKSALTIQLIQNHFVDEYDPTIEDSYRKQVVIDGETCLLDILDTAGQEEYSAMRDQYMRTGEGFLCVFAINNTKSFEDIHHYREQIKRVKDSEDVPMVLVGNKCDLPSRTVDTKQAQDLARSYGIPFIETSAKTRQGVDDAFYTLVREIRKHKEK
KRAS G12V, sequence (P62937 whole entry): as the sequence (P62937 whole entry) above
KRAS G12D, sequence (P01116 1-169 isoform P01116-2 G12D limits assumed): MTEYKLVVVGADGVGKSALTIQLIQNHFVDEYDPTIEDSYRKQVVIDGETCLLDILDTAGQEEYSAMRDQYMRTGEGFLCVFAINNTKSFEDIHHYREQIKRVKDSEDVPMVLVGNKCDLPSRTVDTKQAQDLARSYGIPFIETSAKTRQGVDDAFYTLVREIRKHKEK
KRAS G12D, sequence (P62937 whole entry): as the sequence (P62937 whole entry) above
NRAS Q61R, sequence (P01111 whole entry Q61R): as the sequence (P01111 whole entry) above, with Q61R counted along it
NRAS Q61R, sequence (P62937 whole entry): as the sequence (P62937 whole entry) above

SMILES	IC50 [1, 13] [nM]	IC50 [2, 14] [nM]	IC50 [3] [nM]	IC50 [4] [nM]	IC50 [5, 15] [nM]	IC50 [6, 16] [nM]	IC50 [7, 17] [nM]	IC50 [8, 18] [nM]	IC50 [9] [nM]	IC50 [10] [nM]	IC50 [11, 19] [nM]	IC50 [12, 20] [nM]	IC50 [1, 21] [nM]	IC50 [2, 22] [nM]	IC50 [3, 23] [nM]	IC50 [4, 24] [nM]	IC50 [5, 25] [nM]	IC50 [6, 26] [nM]	IC50 [7, 27] [nM]	IC50 [8, 28] [nM]	also measured
CCn1c(-c2cccnc2[C@H](C)OC)c2c3cc(ccc31)-c1csc(n1)C[C@H](NC(=O)[C@H](C1CCCC1)N(C)C(=O)CN(C)C(=O)[C@@H]1N[C@@H]1C1CC1)C(=O)N1CCC[C@H](N1)C(=O)OCC(C)(C)C2 [Example 210]	100 to 1000	1000 to 10000	1000 to 10000	1000 to 10000	100 to 1000	1000 to 10000	1000 to 10000	1000 to 10000	100 to 1000	1000 to 10000	1000 to 10000	1000 to 10000									
CCN1C[C@@H]1C(=O)N(C)CC(=O)N(C)[C@H](C(=O)N[C@H]1Cc2cc(O)cc(c2)-c2ccc3c(c2)c(c(-c2cccnc2[C@H](C)OC)n3CC)CC(C)(C)COC(=O)[C@@H]2CCCN(N2)C1=O)C1CCCC1 (stereo partly drawn) [Example 309]	< 10	10 to 100	100 to 1000	10 to 100	< 10	10 to 100	10 to 100	10 to 100	10 to 100	100 to 1000	10 to 100	10 to 100									
CCn1c(-c2cccnc2[C@H](C)OC)c2c3cc(ccc31)-c1csc(n1)C[C@H](NC(=O)[C@H](C(C)C)N(C)C(=O)N1CCN(C(=O)[C@@H]3CN3)C[C@H]1C)C(=O)N1CCC[C@H](N1)C(=O)OCC(C)(C)C2 [Example 302]													10 to 100	10 to 100	10 to 100	10 to 100	10 to 100	100 to 1000	10 to 100	100 to 1000	IC50 [9, 29]: 10 to 100 nM; IC50 [10, 30]: 10 to 100 nM; IC50 [11, 31]: 10 to 100 nM; IC50 [12, 32]: 100 to 1000 nM
CCn1c(-c2cccnc2[C@H](C)OC)c2c3cc(ccc31)-c1csc(n1)C[C@H](NC(=O)[C@H](C(C)C)N(C)C(=O)N1CCN(C(=O)[C@@H]3CN3)[C@@H](C)C1)C(=O)N1CCC[C@H](N1)C(=O)OCC(C)(C)C2 [Example 298]													10 to 100	10 to 100	10 to 100	10 to 100	10 to 100	100 to 1000	10 to 100	100 to 1000	IC50 [9, 29]: 10 to 100 nM; IC50 [10, 30]: 10 to 100 nM; IC50 [11, 31]: 100 to 1000 nM; IC50 [12, 32]: 100 to 1000 nM
CCn1c(-c2cc(C3CCN(C)CC3)cnc2[C@H](C)OC)c2c3cc(ccc31)-c1cc(O)cc(c1)C[C@H](NC(=O)[C@H](C1CCCC1)N(C)C(=O)CN(C)C(=O)[C@H]1CN1)C(=O)N1CCC[C@H](N1)C(=O)OCC(C)(C)C2 [Example 230]	< 10	10 to 100	100 to 1000	10 to 100	< 10	10 to 100	10 to 100	10 to 100	< 10	10 to 100	10 to 100	< 10									
CCn1c(-c2cccnc2[C@H](C)OC)c2c3cc(ccc31)-c1csc(n1)C[C@H](NC(=O)[C@H](C(C)C)N(C)C(=O)N(C)[C@H]1CCN(C(=O)[C@@H]3CN3)C1)C(=O)N1CCC[C@H](N1)C(=O)OCC(C)(C)C2 (atropisomer, axis not shown) [Example 310]													100 to 1000	100 to 1000	100 to 1000	100 to 1000	100 to 1000	1000 to 10000	100 to 1000	1000 to 10000	IC50 [9, 29]: 100 to 1000 nM; IC50 [10, 30]: 100 to 1000 nM; IC50 [11, 31]: 100 to 1000 nM; IC50 [12, 32]: 100 to 1000 nM

Reference: patent publication US20230233569A1 (Revolution Medicines, Inc., priority 2020, published 2023)
